Tested on: Culex quinquefasciatus
Assay: K & D Module Repellency Test (Complete Protection Time on volunteer's arm)
Assay type: in vivo
Settings: Table 2; for Avg Duration: active package only in water/isopropanol, 100% repellency threshold (CPT)
Description: Efficacy, Duration, and Percent Repellency: The primary method used to assess the efficacy and duration of an insect repellent is the “Arm-in-Cage Test”. The term “duration” as used herein refers to the time between (1) the application of the insect repellent composition and (2) when the subject first drops below the applicable minimum percent repellency threshold. For all of the testing methodologies used herein, the minimum threshold value for “percent repellency” at which the measurement for duration is cutoff is at least (≥) 90% repellency. For some testing methodologies used herein (such as the “Arm-in-Cage Test”), the minimum threshold value for “percent repellency” was 90% repellency. For other testing methodologies used herein (such as the “K & D Module Repellency Test”), the minimum threshold value for percent repellency was 100% repellency. When a duration is measured using a minimum threshold of 100% repellency, the duration may also be referred to as “Complete Protection Time” (CPT).
Another method that may be used to assess the insect repellent efficacy of an insect repellent composition is the “K & D Module Repellency Test.” The insect repellent efficacy is measured using a minimum repellency threshold of 100% repellency, which may also be referred to as the Complete Protection Time (CPT) of an insect repellent composition, which is the time period between the application of the insect repellent composition and the first insect landing.
In the K & D Module Repellency Test the test volunteer used a marker and a template, representing the base and the 3 cm.×4 cm. openings of the K & D module, to mark skin areas of his/her arm which were then treated with different insect repellent compositions at a skin dose of 0.0017 grams/cm^2 against the insect (in this case, Culex quinquefasciatus). The rectangular marks on the volunteer's arm represented where the six cells of the K & D module were positioned on the volunteer's arm. Each cell of the K & D module was filled with ten mated female mosquitoes (Culex quinquefasciatus), and the floor slide was removed from each cell to expose all mosquitoes to all skin treatments. The time between removing the floor slide of each cell and the first mosquito from the cell landing is recorded as the CPT.

SMILES	Avg Duration [h]	Avg Duration (skin dose 0.0017 grams/cm^2) [h]	Duration (Min) (Time of confirmation land) Subject 1 (active package only) [min]	Duration (Min) (Time of confirmation land) Subject 2 (active package only) [min]	Duration (Min) (Time of confirmation land) Subject 3 (active package only) [min]	Duration (Min) (Time of confirmation land) Subject 4 (active package only, Subject 4) [min]
C=CCc1ccc(O)c(OC)c1 [CE17, eugenol]	1.7	1.67	60	120	120	100
CC(C)=CCC/C(C)=C/CO [CE36, geraniol]	0.8	0.833	30	60	60	
